From paper PMC6805867, “Amphiphilic Triazine Polymer Derivatives as Antibacterial And Anti-atopic Agents in Mice Model” (Scientific Reports, 2019) come the findings set out here.

Molecules are shown by their SMILES.

Experiment [1] deals with selected bacterial strains. In words: Geometric mean of MIC values over the bacterial strains. In kind it is cell-based. Particulars: geometric mean of MIC values from selected six bacterial strains (footnote b). On the procedure:
(§1) The bacterial strains employed in the experiment were Escherichia coli (KCTC 1682), Pseudomonas aeruginosa (KCTC 1637), Bacillus subtilis (KCTC 3068), Staphylococcus aureus (KCTC 1621), three methicillin-resistant Staphylococcus aureus (CCARM 3089, 3090 and 3095), two multidrug-resistant Pseudomonas aeruginosa (CCARM 2095 and 2109) and vancomycin-resistant Enterococcus faecium (ATCC 51559). The antimicrobial activities of polymers were determined by the broth microdilution method, and the procedures were used as previously reported. Briefly, bacteria grown to mid-logarithmic phase in LB broth were diluted to 2 × 10^6 CFU/mL in 1% peptone and added to serial two-fold dilutions of different polymers ranging from 1 to 64 μg/mL. The plates were incubated in a shaking incubator at 37 °C for 18–22 h. The minimum inhibitory concentration (MIC) was determined by confirming the absence of bacterial growth both visually and spectrophotometrically by OD600 readings taken by a microplate ELISA reader (Molecular Devices, Sunnyvale, CA, USA). All measurements were performed three times.

The test system of experiment [2] is AD-like skin lesion in BALB/c mice. In words: DNCB-induced AD-like skin lesion model, dermatitis score. In kind it is in vivo. As to conditions: 200 μg/mL in 20 μL PBS on dorsal skin once daily for 18 days, versus AD mice, n = 8. On the procedure:
(§2) As described in our previous article, the 7-week-old female BALB/c mice were divided into seven groups (n = 8 per group): Control (Con) group, TZP3 200 μg/mL (TZP3) group, and TZP5 200 μg/mL (TZP5) group, DNCB-sensitized only (AD) group, DNCB-sensitized + TZP3 200 μg/mL (AD + TZP3) group, DNCB-sensitized + TZP5 200 μg/mL (AD + TZP5) group, DNCB-sensitized + Dermatop (Sanofi, Korea) 0.25% (AD + Dermatop) group. Dermatop was used as a positive control treatment. For the first induction of AD in the BALB/c mice, the backs of the mice were shaved and challenged with 200 μL of 1% 2,4-dinitrochlorobenzene(DNCB) in acetone/olive oil (3:1) one time (day−4). After 4 days from the induction, 0.5% DNCB was painted onto the backs of the mice every two days (day 2, 4, 6, 8, 10, 12, 14, 16 and 18). Concentrations of 200 μg/mL TZP3 or TZP5 in 20 μL of PBS were applied to the dorsal skin once daily for 18 days.
The severity of dermatitis on the dorsal skin lesions was evaluated three times per week, according to a slight modification of the criteria described previously. The development of (1) erythema/hemorrhage, (2) scarring/dryness, (3) edema, and (4) excoriation/erosion was scored as 0 (none), 1 (mild), 2 (moderate), or 3 (severe). The sum of the individual scores was defined as the dermatitis score.

Experiment [3] relates to β-hexosaminidase release from RBL-2H3 cells. In words: β-hexosaminidase release assay. In kind it is cell-based, rat. Particulars: 500 μg/mL, 12 h treatment, A23187 1 μM 30 min, dose-dependent. As to the method:
The β-hexosaminidase assay was performed as described previously with some modifications. Cells were treated with different concentrations of samples for 12 h. The treated cells were washed two times with PBS and stimulated with calcium ionophore A23187 (1 μM, final concentration) at 37 °C for 30 min. Aliquots (50 μL) of the supernatants were incubated with 50 μL of 1 mM 4-nitrophenyl-N-acetyl-β-D-glucosaminide in 0.1 M sodium citrate (pH 4.5) at 37 °C for 1 h. At the end of incubation, 250 μL of carbonate buffer containing 0.1 M Na2CO3 and 0.1 M NaHCO3 (pH 10) was added, and then the absorbance due to the formation of p-nitrophenol was measured at 410 nm. The supernatant from the non-stimulated cells was used as a blank while the supernatant from the stimulated cells with calcium ionophore A23187 alone was used as a control. The β-hexosaminidase release levels were calculated as a percentage compared to that of control: β-hexosaminidase release (%) = (absorbance of tested sample− absorbance of blank)/(absorbance of control-absorbance of blank) × 100.
Effect of TZP3 and TZP5 on TNF-α suppression
Therefore, the dimer TZP3 and trimer TZP5 were probed for their potential for inhibiting the TNF-α induced from RBL-2H3 cells in in vitro method.
Calcium ionophore A23187 and PMA induced the TNF-α secretion in RBL-2H3 cells, on the contrary, treatment of which with TZP3 and TZP5
Figure S1. […]

Experiment [4] deals with inflammatory cytokine expression in dorsal skin tissue. In words: DNCB-induced AD model, cytokine mRNA expression by real-time PCR. In kind it is in vivo, BALB/c mice. As to conditions: AD-like skin lesions, n = 8. On the procedure: as §2
For the reverse transcription (RT) - polymerase chain reaction (PCR), the total cellular RNA was isolated from the dorsal skin tissue of each treatment group using TRIzol according to the manufacturer’s protocol. The first-strand complementary DNA (cDNA) was synthesized using Superscript II reverse transcriptase (Invitrogen). The conditions for RT-PCR were similar ones that have been previously described in related studies. Quantitative real-time PCR was carried out using a Thermal Cycler Dice TP850 (Takarabio Inc., Shiga, Japan) according to the manufacturer’s protocol. Briefly, 2 μL of cDNA (100 ng), 1 μL of sense and antisense primer solution (0.4 µM), 12.5 μL of SYBR Premix Ex Taq (Takarabio Inc.), and 9.5 μL of dH2O were mixed to obtain a final 25-μL reaction mixture in each reaction tube. The amplification conditions were as follows: 10 s at 95 °C, 40 cycles of 5 s at 95 °C and 30 s at 60 °C, 15 s at 95 °C, 30 s at 60 °C, and 15 s at 95 °C. The mRNA levels of the target genes relative to that of GAPDH were normalized as follows: relative mRNA expression = 2^-(ΔCt of target gene−ΔCt of GAPDH), where Ct is the threshold cycle value. In each sample, the expression level of the analyzed gene was normalized to that of GAPDH and presented as a relative mRNA level.

Experiment [5] has as its system Vancomycin-resistant Enterococcus faecium (VREF) ATCC 51559. In words: MIC against antibiotic-resistant bacteria. In kind it is cell-based. As to conditions: broth microdilution, 37 °C, 18–22 h. On the procedure:
as §1
(In broth dilution the organism is exposed to a series of concentrations in liquid medium.)

Take `NCCCN(CCCN)c1nc(Cl)nc(NCCNc2nc(NCCNc3nc(N)nc(NCCC(c4ccccc4)c4ccccc4)n3)nc(N(CCCN)CCCN)n2)n1` [TZP5]: the “GM (geometric mean of MIC values)” value in experiment [1] was 3.0 µg/mL. The dermatitis score result in experiment [2] is on record as “significantly decreased score”. Further, the “inhibition of β-hexosaminidase release” value in experiment [3] is recorded as “maximum inhibitory effects”. For the same compound, in experiment [4], the “IL-4 suppression (mRNA expression)” value is listed as “around 35%”, the “inhibition of IFN-γ mRNA expression” value is recorded as “around 60%”, the “inhibition of IL-1β mRNA expression” value was more than 75% and the “inhibition of IL-13 mRNA expression” value was more than 75%. Further, in experiment [4], the “inhibition of IL-17 mRNA expression” value is given as “more than 85%”, the “inhibition of TNF-α mRNA expression” value is reported as approximately 65%, the “suppression of IL-6 mRNA expression” value is recorded as approximately 50% and the “suppression of IL-10 mRNA expression” value is reported as “almost similar potency with the dermatop”. The “MIC VREF ATCC 51559” value in experiment [5] is 4 [3] µg/mL.
Consider `NCCCN(CCCN)c1nc(N)nc(NCCNc2nc(Cl)nc(N(Cc3ccccc3)Cc3ccccc3)n2)n1` [TZP3], for which, in experiment [1], the “GM (geometric mean of MIC values)” value is 4.5 [7.6] μg/mL. Moreover, in experiment [2], the dermatitis score result is given as “significantly decreased score”. Also, in experiment [3], the “inhibition of β-hexosaminidase release” value is “maximum inhibitory effects”. In experiment [4], the “IL-4 suppression (mRNA expression)” value is given as “around 35%”, the “inhibition of IFN-γ mRNA expression” value was “around 60%”, the “inhibition of IL-1β mRNA expression” value is recorded as “more than 70%” and the “inhibition of IL-13 mRNA expression” value was “more than 70%”. Also, in experiment [4], the “inhibition of IL-17 mRNA expression” value was 60%, the “inhibition of TNF-α mRNA expression” value is given as “approximately 55%”, the “suppression of IL-6 mRNA expression” value is reported as “around 60%” and the “suppression of IL-10 mRNA expression” value is “around 35%”. Also, the “MIC VREF ATCC 51559” value in experiment [5] is 8 [13.5] µg/mL.
